For orientation: % Inhibition means the change of the read-out against control, counted positive when it falls.

The values that follow come from patent publication US7291629B2, “Neurotrophin antagonist compositions” (Painceptor Pharma Corporation, priority 1996, dated 2007).

One assay concerns p75 and trkA receptors. As to the kind of experiment: Binding of [125I]NGF to PC12 cells in the presence and absence of BDNF. Conditions: 100 uM compound, 0.5 nM 125I-NGF. Here is the method:
The ability of the compounds of Formula I to antagonize NGF interaction with the p75 and trkA receptors was determined as follows.
NGF was labelled using the Lactoperoxidase labelling method (Sutter et al., J. Biol. Chem., 1979) and the labelled NGF was separated from radiolabelling agents and free iodide using a PD-10 Sephadex G-25 column.
PC12 cells were grown in RPMI with 10% heat inactivated donor horse serum and 5% fetal calf serum. Cells were harvested for binding by washing off the media with calcium-magnesium free balanced salt solution (Gey's solution) and incubated in 5 ml Gey's solution at 37° C. for 15 minutes. Cells were pelleted by centrifugation and suspended in Hepes-Krebs Ringer buffer (HKR) (10 mM Hepes pH7.35, containing 125 mM NaCl, 4.8 mM KCl, 1.3 mM CaCl2, 1.2 mM MgSO4, 1.2 mM KH2PO4, 1 mg/ml BSA and 1.0 mg/ml glucose) at a concentration of 4×10^6/ml and kept on ice. (C) NGF Binding The reaction was performed in a 96 well plate. Suspended cells (150 ul, […]) were added to ^125I-NGF (final concentration of 0.5 nM) and the competing compound of Formual I in a final volume of 300 ul of HKR buffer. The plates were incubated with shaking for 2 hr at 4° C. At the end of the incubation, 100 ul aliquots of the reaction sample were added to 400 ul microcentrifuge tubes containing 200 ul of 10% glycerol in HKR buffer. The tubes were centrifuged for 1 minute at ˜5000 rpm and the tip containing the cell pellet was cut off. Radioactivity bound to the cells was determined by measuring the ^125I-NGF associated with each pellet in a gamma counter. Specific binding is calculated as the difference between the amount of ^125I-NGF bound in the absence (total) and presence (NSB) of 50 nM unlabeled NGF. TrkA binding is determined similarly except 10 nM BDNF is added to all reactions. Table 1 summarizes the values obtained from this experiment for the inhibition of binding of NGF to P75 and TrkA by compounds of Formula I.
For “3-Amino-7,4-bis(ethyl-1,3-dioxo-1,2,3,4-tetrahydrobenzo[i]isoquinoline”, the “% Inhibition at 100 uM” value amounted to 23%.
Regarding “3-Methyl-3-(1,3-dioxo-5-nitro(1H,3H)benz[de]isoquinolyl)butyric acid methylester”, the “% Inhibition at 100 uM” value stood at 17%.
For the compound `Cc1ccc(S(=O)(=O)Nc2cc(C)c(C)cc2N2C(=O)CC3C=CC=C4C=CC=CC43C2=O)cc1` (stereo not drawn) [1,3-Dioxo-2-[4,5-dimethyl-2-(4-methylphenylsulphonamido)phenyl]-1,2,3,4-tetrahydrobenzo[i]isoquinoline], the “% Inhibition at 100 uM” value came to 19%.
On to `O=C1c2cccc3cc([N+](=O)[O-])cc(c23)C(=O)N1CCc1ccccn1` [1,3-Dioxo-5-nitro-N-(pyrid-2-ylethyl)-1,2,3,4-tetrahydro[i]isoquinoline], for which the “% Inhibition at 100 uM” value amounted to 28%.
For the compound `O=C1c2cccc3cc([N+](=O)[O-])cc(c23)C(=O)N1CCCN1CCOCC1` [1,3-Dioxo-5-nitro-n-propylmorpholino-1,2,3,4-tetrahydrobenzo[i]isoquinoline], the “% Inhibition at 100 uM” value came out at 11%.
With `O=C1CC2C=C(Sc3ccccc3)C=C3C=CC=CC32C(=O)N1CCc1ccccn1` (stereo not drawn) [1,3-Dioxo-6-phenylmercapto-N-(pyrid-2-ylethyl)-1,2,3,4-tetrahydro-benzo[i]isoquinoline], the “% Inhibition at 100 uM” value worked out at 33%.
As for `O=C1c2cccc3cc([N+](=O)[O-])cc(c23)C(=O)N1CC1CCCO1` (stereo not drawn) [1,3-Dioxo-N-methyltetrahydrofurfur-2-yl-5-nitro-1,2,3,4-tetrahydro[i]isoquinoline], the “% Inhibition at 100 uM” value was found to be 18%.
With `Nc1ccccc1N1C(=O)c2cccc3cccc(c23)C1=O` [2-(2-Aminophenyl)naphthalimide], the “% Inhibition at 100 uM” value is reported as 20%.
Same read-out and setting: the same measure for `O=C1c2cccc3cccc(c23)C(=O)N1c1ccccc1O` [2-(2-Hydroxyphenyl)naphthalimide]: 13%.
As for `O=C1CC2C=CC=C3C=CC=CC32C(=O)N1c1nc2ccccc2[nH]1` (stereo not drawn) [2-(Benzimidaz-2-yl)-1,3-dioxo-1,2,3,4-tetrahydrobenzo[i]isoquinoline], the “% Inhibition at 100 uM” value is listed as 23%.
The same measure, in the same setting: the same measure for `Cc1ccc(S(=O)(=O)Nc2cc(Cl)c(Cl)cc2N2C(=O)c3cccc4cccc(c34)C2=O)cc1` [2-[2-(4-Methylbenzsulphonamido)-4,5-dichlorophenyl]naphthalimide]: 26%; for `Cc1ccc(S(=O)(=O)Nc2ccccc2N2C(=O)c3cccc4c(N(C)C)ccc(c34)C2=O)cc1` [2-{2-(4-methylphenylsulphonamido)phenyl}-6-(N,N-dimethylamino)-naphthalimide]: 29%; for `O=C(O)CCN1C(=O)c2cccc3cc([N+](=O)[O-])cc(c23)C1=O` [3-Nitro-1,8-(N-propioncarboxylate)succinamidonapthalene]: 25%.
Same read-out and setting: the result for `CCCCN1C(=O)c2cccc3cc(N)cc(c23)C1=O` [5-Amino-N-butylnaphthalimide] reads 13%; that for `O=C1c2cccc3cc(Br)cc(c23)C(=O)N1Cc1cccnc1` [5-Bromo-1,3-dioxo-N-methylpyrid-3-yl-1,2,3,4-tetrahydrobenzo[i]isoquinoline], 28%.
As for `CN(C)c1ccc2c3c(cccc13)C(=O)N(c1nc3ccccc3[nH]1)C2=O` [6-(N,N-Dimethylamino)-2-(benzimidazol-2-yl)naphthalimide], the “% Inhibition at 100 uM” value stood at 36%.
Regarding `O=C1c2cccc3c([N+](=O)[O-])ccc(c23)C(=O)N1Cc1ccco1` [6-Nitro-2-(furfuryl)naphthalimide], the “% Inhibition at 100 uM” value worked out at 17%.
For `O=C1c2cccc3c([N+](=O)[O-])ccc(c23)C(=O)N1CCc1ccccn1` [6-Nitro-2-(pyrid-2-ylethyl)naphthalimide], the “% Inhibition at 100 uM” value is listed as 11%.
On the same count and under the same terms, the result for `O=C1c2cccc3c([N+](=O)[O-])ccc(c23)C(=O)N1Cc1cccnc1` [6-Nitro-2-(pyrid-3-methyl)naphthalimide] reads 23%; that for `O=C1c2cccc3c([N+](=O)[O-])ccc(c23)C(=O)N1CC1CCCO1` (stereo not drawn) [6-Nitro-2-(tetrahydrofuran-2-ylmethyl)naphthalimide], 28%.
Still for that read-out and setting: the result for `CCOC(=O)CN1C(=O)c2cccc3cc([N+](=O)[O-])cc(c23)C1=O` [Ethyl-5-nitro-1,3-dioxo-1H-benz[de]isoquinoline-2-3H-acetate] reads 16%; that for `O=C1c2cccc3cccc(c23)C(=O)N1CCO` [N-(1,3-Dioxo-1,2,3,4-tetrahydrobenzo[i]isoquinoline)aminoethanol], 27%; that for `O=C1c2cccc3cc([N+](=O)[O-])cc(c23)C(=O)N1CCO` [N-(1,3-Dioxo-5-nitro-1,2,3,4-tetrahydrobenzo[i]isoquinoline)-aminoethanol], 44%.
As for `O=C(O)CN1C(=O)c2cccc3cc([N+](=O)[O-])cc(c23)C1=O` [N-(1,3-Dioxo-5-nitro-1,2,3,4-tetrahydrobenzo[i]isoquinoline)acetic acid], the “% Inhibition at 100 uM” value was determined as 58%.
Same read-out and setting: the same measure for `O=C1c2cccc3c(Sc4ccccc4)ccc(c23)C(=O)N1CCO` [N-(1,3-Dioxo-6-phenylmercapto-1,2,3,4-tetrahydrobenzo[i]isoquinoline)aminoethanol]: 3%; for `Cc1cc(C)cc(N2C(=O)c3cccc4cccc(c34)C2=O)c1` [N-(3,5-Dimethylphenyl)-1,8-naphthalimide]: 9%.
For the compound `CCOc1ccc(N2C(=O)c3cccc4cc([N+](=O)[O-])cc(c34)C2=O)cc1` [N-(4-Ethoxyphenyl)-5-nitronaphthalimide], the “% Inhibition at 100 uM” value was 18%.
For `O=C1c2cccc3cccc(c23)C(=O)N1CCc1ccccn1` [N-(Pyrid-2-ylethyl)-1,8-naphthalimide], the “% Inhibition at 100 uM” value is 35%.
Consider `O=C1c2cccc3cccc(c23)C(=O)N1Cc1ccccn1` [N-(Pyrid-2-ylmethyl)naphthalimide], for which the “% Inhibition at 100 uM” value is 10%.
In the case of `O=C1c2cccc3cccc(c23)C(=O)N1Nc1ccccc1` [N-Anilino-1,8-naphthalimide], the “% Inhibition at 100 uM” value is given as 1%.
Turning to `O=C1c2cccc3cccc(c23)C(=O)N1Cc1ccco1` [N-Furfuryl-1,8-naphthalimide], the “% Inhibition at 100 uM” value was 36%.
The same measure, in the same setting: the result for `CN1C(=O)c2cccc3cccc(c23)C1=O` [N-Methylnaphthalimide] reads 11%; that for `CCCCCCCCN1C(=O)c2cccc3cc([N+](=O)[O-])cc(c23)C1=O` [N-Octyl-5-nitronaphthalimide], 29%; that for `NN1C(=O)c2cccc3cccc(c23)C1=O` [Naphthalicacid-N-aminoimide], 27%.
On to Naphthalicacid-N,N′-diimide, for which the “% Inhibition at 100 uM” value was found to be 13%.

Another assay relates to L5/L6 Nerve Ligated and Sham-Operated Rats.
Assay: not given
To be noted: i.th; L5/L6 nerve ligated rats.
For the compound `CN1CC[C@]23c4c5ccc(O)c4O[C@H]2[C@@H](O)C=C[C@H]3[C@H]1C5` [Morphine, morphine, reference compound], the “A50(95% C.L.) Tail Flick- Ligated” value amounted to 2.3 µg.

Staying with this assay, now noted: i.th; sham-operated rats.
Take `CN1CC[C@]23c4c5ccc(O)c4O[C@H]2[C@@H](O)C=C[C@H]3[C@H]1C5` [Morphine, morphine, reference compound]: the “A50(95% C.L.) Tail Flick- Sham” value is 1.45 µg.

A further assay has as its system L5/L6 Nerve Ligated rats. As to the kind of experiment: Tactile allodynia, nerve ligation injury model (von Frey paw withdrawal threshold). Conditions: i.p.
Take `CN1CC[C@]23c4c5ccc(O)c4O[C@H]2[C@@H](O)C=C[C@H]3[C@H]1C5` [Morphine, morphine, reference compound]: the “A50(95% C.L.) Allodynia- Ligated” value is reported as 7.1 mg/kg.

Staying with this assay, now noted: i.th.
With `CN1CC[C@]23c4c5ccc(O)c4O[C@H]2[C@@H](O)C=C[C@H]3[C@H]1C5` [Morphine, morphine, reference compound], the “A50(95% C.L.) Allodynia- Ligated” value was greater than 100 µg.
